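Tested at 5 concentrations; 48 h exposure; 96-well plates; endpoints linearly interpolated, else capped at highest concentration. At the GI50, growth is halved.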 The source made the active and inactive calls. Cut-off read from the data, not from the text of the source: active = GI50 up to about 1.1 µM and inactive = higher.
How the values were obtained:
Experiment in all cases: NCI tumour cell line growth inhibition, 48 h
COLO 205 = system: COLO 205
MDA-MB-231 = system: MDA-MB-231
U-251 = system: U-251
LOX IMVI = system: LOX IMVI
SK-MEL-2 = system: SK-MEL-2
786-0 = system: 786-0
NCI-H460 = system: NCI-H460
HT-29 = system: HT-29
RPMI-8226 = system: RPMI-8226
MCF7 = system: MCF7
M14 = system: M14
SF-295 = system: SF-295
OVCAR-4 = system: OVCAR-4
IGROV-1 = system: IGROV-1
NCI-H23 = system: NCI-H23
CAKI-1 = system: CAKI-1
NCI-H226 = system: NCI-H226
HCC 2998 = system: HCC 2998
PC-3 = system: PC-3
EKVX = system: EKVX
Hs-578T = system: Hs-578T
A498 = system: A498
CCRF-CEM = system: CCRF-CEM
BT-549 = system: BT-549
MOLT-4 = system: MOLT-4
KM12 = system: KM12
HL-60 = system: HL-60
HCT-116 = system: HCT-116
SF-539 = system: SF-539
OVCAR-3 = system: OVCAR-3
SR = system: SR
SNB-19 = system: SNB-19
SNB-75 = system: SNB-75
K562 = system: K562
Malme-3M = system: Malme-3M
HOP-62 = system: HOP-62
ACHN = system: ACHN
SK-MEL-28 = system: SK-MEL-28
RXF 393 = system: RXF 393
DU-145 = system: DU-145
UACC-62 = system: UACC-62
NCI-H522 = system: NCI-H522
MDA-N = system: MDA-N
SK-MEL-5 = system: SK-MEL-5
HCT-15 = system: HCT-15
UACC-257 = system: UACC-257
SF-268 = system: SF-268
SW-620 = system: SW-620
HOP-92 = system: HOP-92
OVCAR-5 = system: OVCAR-5
SN12C = system: SN12C
MDA-MB-435 = system: MDA-MB-435
UO-31 = system: UO-31
SK-OV-3 = system: SK-OV-3
A549 = system: A549
T47D = system: T47D
TK-10 = system: TK-10
NCI/ADR-RES = system: NCI/ADR-RES
OVCAR-8 = system: OVCAR-8
KM-20L2 = system: KM-20L2
M19-MEL = system: M19-MEL

In the case of `CN(Cc1cnc2nc(N)nc(N)c2n1)c1ccc(C(=O)NC(CCC(=O)NCCC(P(=O)(O)O)P(=O)(O)O)C(=O)O)cc1` (stereo unspecified), the GI50 (COLO 205) is reported as > 82.6 µM (inactive), the GI50 (MDA-MB-231) is reported as > 100 µM (inactive) and the GI50 (U-251) is reported as 25.9 µM (inactive). The GI50 (LOX IMVI) was 4.38 µM (inactive), the GI50 (SK-MEL-2) was > 49.5 µM (inactive) and the GI50 (786-0) was 6.11 µM (inactive). The GI50 (NCI-H460) was 4.35 µM (inactive), the GI50 (HT-29) was 6 µM (inactive) and the GI50 (RPMI-8226) was 6.85 µM (inactive). The GI50 (MCF7) was 5 µM (inactive), the GI50 (M14) was 4.85 µM (inactive) and the GI50 (SF-295) was 18.7 µM (inactive). For the same molecule, the GI50 (OVCAR-4) was > 100 µM (inactive), the GI50 (IGROV-1) was 35.2 µM (inactive) and the GI50 (NCI-H23) was 24.5 µM (inactive). The GI50 (CAKI-1) was > 25 µM (inactive), the GI50 (NCI-H226) was > 89.7 µM (inactive) and the GI50 (HCC 2998) was 71.4 µM (inactive). For the same molecule, the GI50 (PC-3) was 1.79 µM (inactive), the GI50 (EKVX) was 69.5 µM (inactive) and the GI50 (Hs-578T) was > 100 µM (inactive). The GI50 (A498) was 78 µM (inactive), the GI50 (CCRF-CEM) was 6.08 µM (inactive) and the GI50 (BT-549) was > 100 µM (inactive). For the same molecule, the GI50 (MOLT-4) was 6.5 µM (inactive), the GI50 (KM12) was 6.38 µM (inactive) and the GI50 (HL-60) was 4.12 µM (inactive). For the same molecule, the GI50 (HCT-116) was 3.67 µM (inactive), the GI50 (SF-539) was 10.3 µM (inactive) and the GI50 (OVCAR-3) was 37.2 µM (inactive). For the same molecule, the GI50 (SR) was 3.17 µM (inactive), the GI50 (SNB-19) was > 87.7 µM (inactive) and the GI50 (SNB-75) was > 100 µM (inactive). The GI50 (K562) was 1.47 µM (inactive), the GI50 (Malme-3M) was > 35.8 µM (inactive) and the GI50 (HOP-62) was 52.6 µM (inactive). For the same molecule, the GI50 (ACHN) was 11.5 µM (inactive), the GI50 (SK-MEL-28) was > 100 µM (inactive) and the GI50 (RXF 393) was > 100 µM (inactive). For the same molecule, the GI50 (DU-145) was 21.2 µM (inactive), the GI50 (UACC-62) was 28.4 µM (inactive) and the GI50 (NCI-H522) was > 88.3 µM (inactive). The GI50 (MDA-N) was 8.55 µM (inactive), the GI50 (SK-MEL-5) was 43.4 µM (inactive) and the GI50 (HCT-15) was 6.67 µM. The GI50 (UACC-257) was > 100 µM (inactive), the GI50 (SF-268) was 14.2 µM (inactive) and the GI50 (SW-620) was > 23.3 µM (inactive). For the same molecule, the GI50 (HOP-92) was > 100 µM (inactive), the GI50 (OVCAR-5) was 25.1 µM (inactive) and the GI50 (SN12C) was 11 µM (inactive). The GI50 (MDA-MB-435) was 6.03 µM (inactive), the GI50 (UO-31) was 22 µM (inactive) and the GI50 (SK-OV-3) was 1.13 µM (inactive). For the same molecule, the GI50 (A549) was 11.6 µM (inactive), the GI50 (T47D) was > 67.9 µM (inactive) and the GI50 (TK-10) was > 100 µM (inactive). For the same molecule, the GI50 (NCI/ADR-RES) was 21.5 µM (inactive) and the GI50 (OVCAR-8) was 7.29 µM (inactive).

In the case of `CC1OC(O[C@@H]2C=C3CC[C@@H]4[C@H](CC[C@]5(C)[C@@H](c6ccc(=O)oc6)CC[C@]45O)[C@@]3(C)CC2)C(O)C(O)C1O` (stereo partly specified), the GI50 (COLO 205) is reported as 0.03 µM (active), the GI50 (U-251) is reported as 0.03 µM (active) and the GI50 (LOX IMVI) is reported as 0.03 µM (active). The GI50 (HT-29) was 0.03 µM (active), the GI50 (RPMI-8226) was 0.03 µM (active) and the GI50 (MCF7) was 0.03 µM (active). For the same molecule, the GI50 (IGROV-1) was 0.03 µM (active), the GI50 (NCI-H23) was 0.0475 µM (active) and the GI50 (Hs-578T) was 0.00119 µM (active). The GI50 (A498) was 0.03 µM (active), the GI50 (CCRF-CEM) was 0.03 µM (active) and the GI50 (KM12) was 0.03 µM (active). The GI50 (SNB-19) was 0.03 µM (active), the GI50 (K562) was 0.03 µM (active) and the GI50 (ACHN) was 0.00179 µM (active). For the same molecule, the GI50 (SK-MEL-28) was 0.03 µM (active), the GI50 (KM-20L2) was 0.03 µM (active) and the GI50 (M19-MEL) was 0.03 µM (active). The GI50 (HCT-15) was 0.0475 µM, the GI50 (UACC-257) was 0.03 µM (active) and the GI50 (SW-620) was 0.03 µM (active). For the same molecule, the GI50 (OVCAR-5) was 0.03 µM (active) and the GI50 (OVCAR-8) was 0.03 µM (active).

For `COc1nn(Cc2ccccn2)c2ccc([N+](=O)[O-])cc12`, the GI50 (COLO 205) was > 100 µM (inactive), the GI50 (MDA-MB-231) was 57.4 µM (inactive) and the GI50 (U-251) was > 100 µM (inactive). The GI50 (LOX IMVI) was 53.6 µM (inactive), the GI50 (SK-MEL-2) was 51.1 µM (inactive) and the GI50 (786-0) was > 100 µM (inactive). For the same molecule, the GI50 (NCI-H460) was > 100 µM (inactive), the GI50 (HT-29) was 70.6 µM (inactive) and the GI50 (RPMI-8226) was 54.8 µM (inactive). The GI50 (MCF7) was > 100 µM (inactive), the GI50 (M14) was > 100 µM (inactive) and the GI50 (SF-295) was > 100 µM (inactive). The GI50 (OVCAR-4) was > 100 µM (inactive), the GI50 (IGROV-1) was 35.1 µM (inactive) and the GI50 (NCI-H23) was > 100 µM (inactive). The GI50 (CAKI-1) was 51.2 µM (inactive), the GI50 (NCI-H226) was 85.9 µM (inactive) and the GI50 (HCC 2998) was 84.7 µM (inactive). For the same molecule, the GI50 (PC-3) was > 100 µM (inactive), the GI50 (EKVX) was 56.1 µM (inactive) and the GI50 (Hs-578T) was 19.4 µM (inactive). The GI50 (A498) was 30.3 µM (inactive), the GI50 (CCRF-CEM) was 76.2 µM (inactive) and the GI50 (BT-549) was 44.4 µM (inactive). For the same molecule, the GI50 (MOLT-4) was 53.1 µM (inactive), the GI50 (KM12) was > 100 µM (inactive) and the GI50 (HL-60) was 20.2 µM (inactive). The GI50 (HCT-116) was 62.4 µM (inactive), the GI50 (SF-539) was 27.4 µM (inactive) and the GI50 (OVCAR-3) was > 100 µM (inactive). For the same molecule, the GI50 (SR) was 28.4 µM (inactive), the GI50 (SNB-19) was > 100 µM (inactive) and the GI50 (SNB-75) was 17.3 µM (inactive). The GI50 (K562) was 31 µM (inactive), the GI50 (Malme-3M) was > 100 µM (inactive) and the GI50 (HOP-62) was > 100 µM (inactive). The GI50 (ACHN) was 48.6 µM (inactive), the GI50 (SK-MEL-28) was > 100 µM (inactive) and the GI50 (RXF 393) was 42.4 µM (inactive). The GI50 (DU-145) was > 100 µM (inactive), the GI50 (UACC-62) was 38.3 µM (inactive) and the GI50 (NCI-H522) was 47.8 µM (inactive). The GI50 (MDA-N) was 27.8 µM (inactive), the GI50 (SK-MEL-5) was 30.5 µM (inactive) and the GI50 (HCT-15) was 62.7 µM. For the same molecule, the GI50 (UACC-257) was 94 µM (inactive), the GI50 (SF-268) was > 100 µM (inactive) and the GI50 (SW-620) was 63 µM (inactive). For the same molecule, the GI50 (HOP-92) was 20.7 µM (inactive), the GI50 (OVCAR-5) was > 100 µM (inactive) and the GI50 (SN12C) was > 100 µM (inactive). The GI50 (MDA-MB-435) was 32.7 µM (inactive), the GI50 (UO-31) was 32.4 µM (inactive) and the GI50 (SK-OV-3) was > 100 µM (inactive). The GI50 (A549) was > 100 µM (inactive), the GI50 (T47D) was 77.8 µM (inactive) and the GI50 (TK-10) was 53.1 µM (inactive). The GI50 (NCI/ADR-RES) was 64.4 µM (inactive) and the GI50 (OVCAR-8) was > 100 µM (inactive).

From ChEMBL document CHEMBL1201862, “PubChem BioAssay data set” (2004)
